From PubChem BioAssay AID1259407 (Chemical Carcinogenesis Research Information System (CCRIS), 2018)
Entries after “also recorded” stand apart in the source; their conditions may differ. Calls of active or inactive are those of the source. The rule behind the calls is not given here.

Test system: CCRIS mutagenicity, Ames/micronucleus/aberration tests
Test: CCRIS mutagenicity studies
[1] = Test System: AMES SALMONELLA TYPHIMURIUM, Strain/Indicator: TA98, Metabolic Activation: NONE, Method: STANDARD PLATE

**Q.** What does the source list for Nc1ccc([N+](=O)[O-])cc1N?
**A.** mutagenic call (End Point: IN VITRO CHROMOSOMAL ABERRATIONS, Test System: CHL CELLS, Metabolic Activation: RAT, LIVER, S-9, SODIUM PHENOBARBITAL AND 5,6-BENZOFLAVONE): inactive; negative; authors report equivocal results for structural changes at 0.75 , 1.5; mutagenic call (Test System: AMES SALMONELLA TYPHIMURIUM, Strain/Indicator: TA98(NR), Metabolic Activation: NONE, Method: PREINCUBATION): active; positive; mutagenic call (Test System: AMES SALMONELLA TYPHIMURIUM, Strain/Indicator: TA98(NR), Metabolic Activation: RAT, LIVER, S-9, AROCLOR 1254, Method: PREINCUBATION): active; positive; mutagenic call (Test System: AMES SALMONELLA TYPHIMURIUM, Strain/Indicator: TA98, Metabolic Activation: NONE): active; positive; mutagenic call (Test System: AMES SALMONELLA TYPHIMURIUM, Strain/Indicator: TA98, Metabolic Activation: NONE, Method: PREINCUBATION): active; positive; mutagenic call [1]: active; positive; mutagenic call (Test System: AMES SALMONELLA TYPHIMURIUM, Strain/Indicator: TA98, Metabolic Activation: PEA APICAL BUD S-9, Method: PREINCUBATION): active; positive; mutagenic call (Test System: AMES SALMONELLA TYPHIMURIUM, Strain/Indicator: TA98, Metabolic Activation: PEA APICAL BUD S-9, Method: STANDARD PLATE): active; positive; mutagenic call (Test System: AMES SALMONELLA TYPHIMURIUM, Strain/Indicator: TA98, Metabolic Activation: RAT, LIVER, S-9, AROCLOR 1254): active; positive; mutagenic call (Test System: AMES SALMONELLA TYPHIMURIUM, Strain/Indicator: TA98, Metabolic Activation: RAT, LIVER, S-9, AROCLOR 1254, Method: PREINCUBATION): active; positive; mutagenic call (Test System: AMES SALMONELLA TYPHIMURIUM, Strain/Indicator: TA98, Metabolic Activation: RAT, LIVER, S-9, AROCLOR 1254, Method: STANDARD PLATE): active; positive; mutagenic call (Test System: AMES SALMONELLA TYPHIMURIUM, Strain/Indicator: TA98, Metabolic Activation: RAT, LIVER, S-9, PHENOBARBITAL AND BETA-NAPHTHOFLAVONE, Method: PREINCUBATION): active; positive; mutagenic call (Test System: AMES SALMONELLA TYPHIMURIUM, Strain/Indicator: TA98, Metabolic Activation: RAT, LIVER, S-9, SODIUM PHENOBARBITAL AND 5,6-BENZOFLAVONE, Method: PREINCUBATION): active; positive; mutagenic call (Test System: AMES SALMONELLA TYPHIMURIUM, Strain/Indicator: TA98, Metabolic Activation: ZEA MAYS, S-2, Method: STANDARD PLATE): active; positive; mutagenic call (Test System: AMES SALMONELLA TYPHIMURIUM, Strain/Indicator: TA100(NR), Metabolic Activation: NONE, Method: PREINCUBATION): active; positive; mutagenic call (Test System: AMES SALMONELLA TYPHIMURIUM, Strain/Indicator: TA100(NR), Metabolic Activation: RAT, LIVER, S-9, AROCLOR 1254, Method: PREINCUBATION): active; positive; mutagenic call (Test System: AMES SALMONELLA TYPHIMURIUM, Strain/Indicator: TA100, Metabolic Activation: NONE, Method: PREINCUBATION): active; positive; mutagenic call (Test System: AMES SALMONELLA TYPHIMURIUM, Strain/Indicator: TA100, Metabolic Activation: NONE, Method: STANDARD PLATE): active; positive; mutagenic call (Test System: AMES SALMONELLA TYPHIMURIUM, Strain/Indicator: TA100, Metabolic Activation: PEA APICAL BUD S-9, Method: PREINCUBATION): active; positive; mutagenic call (Test System: AMES SALMONELLA TYPHIMURIUM, Strain/Indicator: TA100, Metabolic Activation: PEA APICAL BUD S-9, Method: STANDARD PLATE): active; positive; mutagenic call (Test System: AMES SALMONELLA TYPHIMURIUM, Strain/Indicator: TA100, Metabolic Activation: RAT, LIVER, S-9, AROCLOR 1254, Method: PREINCUBATION): active; positive; mutagenic call (Test System: AMES SALMONELLA TYPHIMURIUM, Strain/Indicator: TA100, Metabolic Activation: RAT, LIVER, S-9, AROCLOR 1254, Method: STANDARD PLATE): active; positive; mutagenic call (Test System: AMES SALMONELLA TYPHIMURIUM, Strain/Indicator: TA100, Metabolic Activation: RAT, LIVER, S-9, PHENOBARBITAL AND BETA-NAPHTHOFLAVONE, Method: PREINCUBATION): active; positive; mutagenic call (Test System: AMES SALMONELLA TYPHIMURIUM, Strain/Indicator: TA100, Metabolic Activation: ZEA MAYS, S-2, Method: STANDARD PLATE): active; positive; mutagenic call (Test System: AMES SALMONELLA TYPHIMURIUM, Strain/Indicator: TA104, Metabolic Activation: NONE, Method: STANDARD PLATE): active; positive; mutagenic call (Test System: AMES SALMONELLA TYPHIMURIUM, Strain/Indicator: TA4001, Metabolic Activation: NONE, Method: STANDARD PLATE): inactive; negative; mutagenic call (Test System: AMES SALMONELLA TYPHIMURIUM, Strain/Indicator: TA4006, Metabolic Activation: NONE, Method: STANDARD PLATE): active; positive; mutagenic call (Test System: AMES SALMONELLA TYPHIMURIUM, Strain/Indicator: TA7001, Metabolic Activation: NONE, Method: STANDARD PLATE): inactive; negative; mutagenic call (Test System: AMES SALMONELLA TYPHIMURIUM, Strain/Indicator: TA7001, Metabolic Activation: RAT LIVER S-9, AROCLOR 1254, Method: STANDARD PLATE): inactive; negative; mutagenic call (Test System: AMES SALMONELLA TYPHIMURIUM, Strain/Indicator: TA7002, Metabolic Activation: NONE, Method: STANDARD PLATE): active; positive; mutagenic call (Test System: AMES SALMONELLA TYPHIMURIUM, Strain/Indicator: TA7002, Metabolic Activation: RAT LIVER S-9, AROCLOR 1254, Method: STANDARD PLATE): active; positive; mutagenic call (Test System: AMES SALMONELLA TYPHIMURIUM, Strain/Indicator: TA7003, Metabolic Activation: NONE, Method: STANDARD PLATE): inactive; negative; mutagenic call (Test System: AMES SALMONELLA TYPHIMURIUM, Strain/Indicator: TA7004, Metabolic Activation: NONE, Method: STANDARD PLATE): active; positive; mutagenic call (Test System: AMES SALMONELLA TYPHIMURIUM, Strain/Indicator: TA7004, Metabolic Activation: RAT LIVER S-9, AROCLOR 1254, Method: STANDARD PLATE): active; positive; mutagenic call (Test System: AMES SALMONELLA TYPHIMURIUM, Strain/Indicator: TA7005, Metabolic Activation: NONE, Method: STANDARD PLATE): active; positive; mutagenic call (Test System: AMES SALMONELLA TYPHIMURIUM, Strain/Indicator: TA7005, Metabolic Activation: RAT LIVER S-9, AROCLOR 1254, Method: STANDARD PLATE): active; positive; mutagenic call (Test System: Ames Salmonella typhimurium, Strain/Indicator: TA97a, Metabolic Activation: None, Method: Preincubation): active; positive (decrease in mutagenicity when 0.99-15.90 mg/plate of chloroform extrac; mutagenic call (Test System: Ames Salmonella typhimurium, Strain/Indicator: TA98, Metabolic Activation: None, Method: Preincubation): active; positive (decrease in mutagenicity when 0.99-15.90 mg/plate of chloroform extrac; also recorded: active; positive (dose related decrease in mutagenicity when 1.82-21.90 mg/plate of meth; mutagenic call (Test System: CHINESE HAMSTER OVARY, Strain/Indicator: CHO-K1-BH4 (HGPRT)/6-THIOGUANINE, Metabolic Activation: NONE): inactive; negative; mutagenic call (Test System: CHINESE HAMSTER OVARY, Strain/Indicator: CHO-K1-BH4 (HGPRT)/6-THIOGUANINE, Metabolic Activation: S-9): inactive; negative; mutagenic call (Test System: E. COLI, Strain/Indicator: WP2 UVRA, Metabolic Activation: HAMSTER, LIVER, S-9, AROCLOR 1254, Method: STANDARD PLATE): inactive; negative; mutagenic call (Test System: E. COLI, Strain/Indicator: WP2 UVRA, Metabolic Activation: HAMSTER, LIVER, S-9, Method: STANDARD PLATE): inactive; negative; mutagenic call (Test System: E. COLI, Strain/Indicator: WP2 UVRA, Metabolic Activation: MOUSE, LIVER, S-9, AROCLOR 1254, Method: STANDARD PLATE): inactive; negative; mutagenic call (Test System: E. COLI, Strain/Indicator: WP2 UVRA, Metabolic Activation: MOUSE, LIVER, S-9, Method: STANDARD PLATE): inactive; negative; mutagenic call (Test System: E. COLI, Strain/Indicator: WP2 UVRA, Metabolic Activation: NONE, Method: STANDARD PLATE): inactive; negative; mutagenic call (Test System: E. COLI, Strain/Indicator: WP2 UVRA, Metabolic Activation: RAT, LIVER, S-9, AROCLOR 1254, Method: STANDARD PLATE): inactive; negative; mutagenic call (Test System: E. COLI, Strain/Indicator: WP2 UVRA, Metabolic Activation: RAT, LIVER, S-9, Method: STANDARD PLATE): inactive; negative; mutagenic call (Test System: MOUSE LYMPHOMA, Strain/Indicator: L5178Y (TK+/TK-), Metabolic Activation: NONE, Method: SUSPENSION/PLATE): active; positive; mutagenic call (Test System: MOUSE LYMPHOMA, Strain/Indicator: L5178Y (TK+/TK-), Metabolic Activation: RAT, LIVER, S-9, AROCLOR 1254, Method: SUSPENSION/PLATE): active; positive; mutagenic call (Test System: UDS RAT HEPATOCYTES, Strain/Indicator: THY INCORP, Metabolic Activation: NONE, Method: AUTORADIOGRAPHY (SERUM-FREE MEDIA)): active; positive

**Q.** Which mutagenic call [1] does the source give for O=c1c2ccccc2[nH]c2occc12 here?
**A.** inactive; negative

**Q.** What about the mutagenic call (Test System: AMES SALMONELLA TYPHIMURIUM, Strain/Indicator: TA98, Metabolic Activation: RAT LIVER S-9, PHENOBARTITAL, Method: STANDARD PLATE) of the same molecule?
**A.** inactive; negative
